In ChEMBL document CHEMBL3509421, “FDA drug approval package for diclofenac acid (NDA 22-202 CP, Ref ID: 3374276)”:

Key:
clinical [1] = settings: both, human, plasma, po, 50 mg
[2] = (§1) Mean maximum Tmax value of diclofenac potassium following oral dosing of PRO-513 50 mg sachet in healthy human; format: ADME, organism-based; design: dietary status Fasting, dose 50 mg, dosed compound id 2.46815e+06, dosed compound name Diclofenac potassium, gender Mixed, regimen Single, route oral, study doses 50 mg; settings: both, plasma, read-out: Maximum Tmax
[3] = (§2) Mean AUC(0-t) of diclofenac potassium following oral dosing of PRO-513 50 mg sachet in healthy human; format: ADME, organism-based; design: dietary status Fasting, dose 50 mg, dosed compound id 2.46815e+06, dosed compound name Diclofenac potassium, gender Mixed, regimen Single, route oral, study doses 50 mg; settings: both, plasma
[4] = (§3) Geometric mean for apparent terminal elimination rate constant of diclofenac following single oral dosing of 35 mg Zorvolex capsule in healthy human; format: ADME, organism-based, Plasma; design: dietary status Fasting, dose 35 mg, dosed compound id 2.46815e+06, dosed compound name Diclofenac, gender Mixed, regimen Single, route oral; settings: in vivo
[5] = Mean AUC (0-infinity) of diclofenac following single oral dosing of 25 mg diclofenac potassium softgel capsule in healthy human; format: ADME, organism-based; design: time infinity, dietary status Fed, dose 25 mg, dosed compound id 2.46815e+06, dosed compound name Diclofenac potassium, gender Mixed, regimen Single, route oral, study doses 25/50 mg; settings: both, plasma, read-out: AUC (0-infinity)
[6] = Geometric mean for apparent terminal elimination rate constant of diclofenac following single oral dosing of 18 mg Zorvolex capsule in healthy human; format: ADME, organism-based, Plasma; design: dietary status Fasting, dose 18 mg, dosed compound id 2.46815e+06, dosed compound name Diclofenac, gender Mixed, regimen Single, route oral; settings: in vivo
[7] = Mean AUC (0-infinity) value of diclofenac following single oral dosing of 50 mg Cataflam tablet in healthy human; format: ADME, organism-based; design: time infinity, dietary status Fed, dose 50 mg, dosed compound id 2.46815e+06, dosed compound name Diclofenac potassium, gender Mixed, regimen Single, route oral; settings: both, plasma, read-out: AUC (0-infinity)
[8] = Mean apparent terminal elimination rate constant value of diclofenac following single oral dosing of 50 mg Cataflam tablet in healthy human; format: ADME, organism-based, Plasma; design: dietary status Fed, dose 50 mg, dosed compound id 2.46815e+06, dosed compound name Diclofenac potassium, gender Mixed, regimen Single, route oral; settings: in vivo
[9] = Mean apparent terminal elimination rate constant value of diclofenac following single oral dosing of 35 mg Zorvolex capsule in healthy human; format: ADME, organism-based, Plasma; design: dietary status Fed, dose 35 mg, dosed compound id 2.46815e+06, dosed compound name Diclofenac, gender Mixed, regimen Single, route oral; settings: in vivo
[10] = Mean Cmax of diclofenac following single oral dosing of 25 mg diclofenac potassium soft gelatin capsule in healthy human; format: ADME, organism-based; design: dietary status Fasting, dose 25 mg, dosed compound id 2.46815e+06, dosed compound name Diclofenac potassium, gender Mixed, regimen Single, route oral, study doses 25/50 mg; settings: both, plasma
[11] = Mean AUC (0-t) of diclofenac following single oral dosing of 25 mg diclofenac potassium softgel capsule in healthy human; format: ADME, organism-based; design: dietary status Fed, dose 25 mg, dosed compound id 2.46815e+06, dosed compound name Diclofenac potassium, gender Mixed, regimen Single, route oral, study doses 25/50 mg; settings: both, plasma
[12] = Median tmax of diclofenac following single oral dosing of 50 mg Cataflam tablet in healthy human; format: ADME, organism-based; design: dietary status Fed, dose 50 mg, dosed compound id 2.46815e+06, dosed compound name Diclofenac potassium, gender Mixed, regimen Single, route oral; settings: both, plasma, read-out: Median Tmax
[13] = Mean AUC(0-t) of diclofenac potassium following oral dosing of Cataflam 50 mf tablet in healthy human; format: ADME, organism-based; design: dietary status Fasting, dose 50 mg, dosed compound id 2.46815e+06, dosed compound name Diclofenac potassium, gender Mixed, regimen Single, route oral, study doses 50 mg; settings: both, plasma, 50 mg
[14] = Geometric mean for AUC (0-infinity) of diclofenac following single oral dosing of 35 mg Zorvolex capsule in healthy human; format: ADME, organism-based; design: time infinity, dietary status Fasting, dose 35 mg, dosed compound id 2.46815e+06, dosed compound name Diclofenac, gender Mixed, regimen Single, route oral; settings: both, plasma, read-out: AUC (0-infinity)
[15] = Geometric mean for AUC (0-infinity) of diclofenac following single oral dosing of 50 mg Cataflam tablet in healthy human; format: ADME, organism-based; design: dietary status Fed, dose 50 mg, dosed compound id 2.46815e+06, dosed compound name Diclofenac potassium, gender Mixed, regimen Single, route oral, time infinity; settings: both, plasma, read-out: AUC (0-infinity)
[16] = Mean Kel of diclofenac potassium following oral dosing of Cataflam 50 mf tablet in healthy human; format: ADME, organism-based; design: dietary status Fasting, dose 50 mg, dosed compound id 2.46815e+06, dosed compound name Diclofenac potassium, gender Mixed, regimen Single, route oral, study doses 50 mg; settings: both, plasma, 50 mg
[17] = as §1; format: ADME, organism-based; design: dietary status Fed, dose 50 mg, dosed compound id 2.46815e+06, dosed compound name Diclofenac potassium, gender Mixed, regimen Single, route oral, study doses 50 mg; settings: both, plasma, read-out: Maximum Tmax
[18] = Geometric mean for Cmax of diclofenac following single oral dosing of 50 mg Cataflam tablet in healthy human; format: ADME, organism-based; design: dietary status Fed, dose 50 mg, dosed compound id 2.46815e+06, dosed compound name Diclofenac potassium, gender Mixed, regimen Single, route oral; settings: both, plasma
[19] = Mean maximum Tmax value of diclofenac potassium following oral dosing of Cataflam 50 mf tablet in healthy human; format: ADME, organism-based; design: dietary status Fed, dose 50 mg, dosed compound id 2.46815e+06, dosed compound name Diclofenac potassium, gender Mixed, regimen Single, route oral, study doses 50 mg; settings: both, plasma, 50 mg, read-out: Maximum Tmax
[20] = Mean minimum Tmax value of diclofenac potassium following oral dosing of PRO-513 50 mg sachet in healthy human; format: ADME, organism-based, Plasma; design: dietary status Fasting, dose 50 mg, dosed compound id 2.46815e+06, dosed compound name Diclofenac potassium, gender Mixed, regimen Single, route oral, study doses 50 mg; settings: in vivo
[21] = Mean AUC(0-infinity) of diclofenac following single oral dosing of 25 mg diclofenac potassium soft gelatin capsule in healthy human; format: ADME, organism-based; design: time infinity, dietary status Fasting, dose 25 mg, dosed compound id 2.46815e+06, dosed compound name Diclofenac potassium, gender Mixed, regimen Single, route oral, study doses 25/50 mg; settings: both, plasma, read-out: AUC (0-infinity)
[22] = as §2; format: ADME, organism-based; design: dietary status Fed, dose 50 mg, dosed compound id 2.46815e+06, dosed compound name Diclofenac potassium, gender Mixed, regimen Single, route oral, study doses 50 mg; settings: both, plasma
[23] = Mean AUC (0-t) value of diclofenac following single oral dosing of 18 mg Zorvolex capsule in healthy human; format: ADME, organism-based; design: dietary status Fasting, dose 18 mg, dosed compound id 2.46815e+06, dosed compound name Diclofenac, gender Mixed, regimen Single, route oral; settings: both, plasma
[24] = Mean Cmax of diclofenac potassium following oral dosing of Cataflam 50 mf tablet in healthy human; format: ADME, organism-based; design: dietary status Fed, dose 50 mg, dosed compound id 2.46815e+06, dosed compound name Diclofenac potassium, gender Mixed, regimen Single, route oral, study doses 50 mg; settings: both, plasma, 50 mg
clinical [25] = settings: both, human, plasma, po, 35 mg
[26] = Geometric mean for Cmax of diclofenac following single oral dosing of 35 mg Zorvolex capsule in healthy human; format: ADME, organism-based; design: dietary status Fasting, dose 35 mg, dosed compound id 2.46815e+06, dosed compound name Diclofenac, gender Mixed, regimen Single, route oral; settings: both, plasma
[27] = Mean apparent terminal elimination rate constant value of diclofenac following single oral dosing of 18 mg Zorvolex capsule in healthy human; format: ADME, organism-based, Plasma; design: dietary status Fasting, dose 18 mg, dosed compound id 2.46815e+06, dosed compound name Diclofenac, gender Mixed, regimen Single, route oral; settings: in vivo
[28] = Mean median Tmax value of diclofenac potassium following oral dosing of PRO-513 50 mg sachet in healthy human; format: ADME, organism-based; design: dietary status Fasting, dose 50 mg, dosed compound id 2.46815e+06, dosed compound name Diclofenac potassium, gender Mixed, regimen Single, route oral, study doses 50 mg; settings: both, plasma, read-out: Median Tmax
[29] = as §3; format: ADME, organism-based, Plasma; design: dietary status Fed, dose 35 mg, dosed compound id 2.46815e+06, dosed compound name Diclofenac, gender Mixed, regimen Single, route oral; settings: in vivo
[30] = Minimum tmax of diclofenac following single oral dosing of 50 mg Cataflam tablet in healthy human; format: ADME, organism-based, Plasma; design: dietary status Fed, dose 50 mg, dosed compound id 2.46815e+06, dosed compound name Diclofenac potassium, gender Mixed, regimen Single, route oral; settings: in vivo
clinical [31] = settings: both, human, plasma, po, 50 mg; remark: listed apart in the source
[32] = Mean Cmax of diclofenac potassium following oral dosing of PRO-513 50 mg sachet in healthy human; format: ADME, organism-based; design: dietary status Fed, dose 50 mg, dosed compound id 2.46815e+06, dosed compound name Diclofenac potassium, gender Mixed, regimen Single, route oral, study doses 50 mg; settings: both, plasma

Q: Which half-life (clinical [1]) does the source give for `O=C(O)Cc1ccccc1Nc1c(Cl)cccc1Cl` [DICLOFENAC] here?
A: 1.35 h

Q: And the Tmax [2]?
A: 0.67 h

Q: What about the AUC(0-t) [3] of the same compound?
A: 1240 ng·h/mL

Q: What about the lambda-z [4] of the same compound?
A: 0.34 h⁻¹

Q: And the AUC(0-inf) [5]?
A: 713 ng·h/mL

Q: What about the lambda-z [6] of the same compound?
A: 0.384 h⁻¹

Q: What about the AUC(0-inf) [7] of the same compound?
A: 1200 ng·h/mL

Q: And the lambda-z [8]?
A: 0.332 h⁻¹

Q: And the lambda-z [9]?
A: 0.371 h⁻¹

Q: What about the Cmax [10] of the same compound?
A: 1120 ng/mL

Q: What about the AUC(0-t) [11] of the same compound?
A: 680 ng·h/mL

Q: And the Tmax [12]?
A: 2.33 h

Q: And the AUC(0-t) [13]?
A: 1080 ng·h/mL

Q: What about the AUC(0-inf) [14] of the same compound?
A: 979 ng·h/mL

Q: And the AUC(0-inf) [15]?
A: 1180 ng·h/mL

Q: And the k el [16]?
A: 0.000164 s⁻¹

Q: And the Tmax [17]?
A: 4 h

Q: What about the Cmax [18] of the same compound?
A: 621 ng/mL

Q: What about the Tmax [19] of the same compound?
A: 8 h

Q: What about the “Minimum Tmax” value [20] of the same compound?
A: 0.17 h

Q: And the AUC(0-inf) [21]?
A: 603 ng·h/mL

Q: And the AUC(0-t) [22]?
A: 1050 ng·h/mL

Q: And the AUC(0-t) [23]?
A: 490 ng·h/mL

Q: And the Cmax [24]?
A: 835 ng/mL

Q: And the half-life (clinical [25])?
A: 2.24 h

Q: What about the Cmax [26] of the same compound?
A: 804 ng/mL

Q: And the lambda-z [27]?
A: 0.399 h⁻¹

Q: What about the Tmax [28] of the same compound?
A: 0.25 h

Q: What about the lambda-z [29] of the same compound?
A: 0.333 h⁻¹

Q: What about the “Minimum Tmax” value [30] of the same compound?
A: 0.5 h

Q: What about the half-life (clinical [31]) of the same compound?
A: 2.27 h

Q: And the Cmax [32]?
A: 506 ng/mL
